Test results taken from patent publication US9918983B2, “Suicidal LSD1 inhibitors targeting SOX2-expressing cancer cells” (THE BOARD OF REGENTS OF THE NEVADA SYSTEM OF HIGHER …, priority 2013, dated 2018).

Key:
LSD1 = biological target: T1, LSD1 (Homo sapiens, UniProt O60341); assay: LSD1 activity (LSD1 IC50, Table 7, FIG. 2); format: cell-based
T1 construct: LSD1 activity determined in a cell-based assay as described herein; endogenous in cells
Protocol: For a typical deacetylation assay, 1 μg rHDAC1 or 1 μg immunoprecipitated endogenous HDAC1-protein A complexes (from two 10-cm dishes) was incubated with 0.4 μg H4K16ac peptide in the presence or absence of 50 μM CBB1007 or 2 μM MS-275 at 30° C. for 1 h. The percentages of deacetylated products were analyzed by mass spectrometry, and the data were analyzed by GraphPad Prism (version 5) software. The reaction products were analyzed by mass spectrometry to separate the peptide substrate (H4K16ac) and the product (H4K16), as previously described (Wang, J., et al. (2011) Cancer Research 71, 7238-7249). For a typical demethylation assay, 0.4 μg H3K4me2 substrate peptide was incubated individually with 1 μg recombinant LSD1 (rLSD1) or 1 μg immunoprecipitated LSD1-protein A complex in the presence or absence of 50 μM CBB1007 or 2 μM MS-275 at 30° C. for 1 h. The reaction products were analyzed by mass spectrometry to separate the products (H3K4me1 and H3K4) from the substrate (H3K4me2), as previously described (Wang, J., et al. (2011) Cancer Research 71, 7238-7249).
Table 7 below lists specific compounds and LSD1 activity determined in a cell-based assay as described herein (see also FIGS. 2A and 2B).

[1] = test system: histone H3 and H4 methylation and acetylation; assay: Histone modifications in F9 cells (Western blotting); format: cell-based, mouse
Protocol: To quantify and compare the protein band densities in the Western blots shown in the figures, a titration by serial dilution of the siRNA protein samples for mES cell lysates was used as a reference. The concentration of titration samples was measured by use of a NanoDrop 2000 apparatus, and the protein concentration of all titration samples was adjusted to 1 μg/μL. The protein samples were loaded onto an SDS-polyacrylamide gel at levels ranging from 1 μg to 13 μg at 2-μg intervals and immune blotted with each antibody, including anti-LSD1, anti-HDAC1, and anti-histone H3 antibodies, with three independent loadings. The Western blots were developed with exposure times ranging from 30 s to 1 min. The exposure density of each band was scanned by Adobe Photoshop Elements (version 4.0) software using a CanonScan 8600F scanner (Canon, Calif.) and was subsequently quantified by use of the area density tool of Gel-Pro Analyzer (version 4.0) software (Media Cybernetics, Inc.) and plotted. The regression analysis of each signal was performed by use of the Microsoft Excel program's Analysis Tool Pak regression option. […] The amount of the protein band in the Western blot shown in the figures was quantified by scanning, as described for the reference titration. […] The quantity of protein band densities between two protein samples was externally corrected by use of the reference plots. […] The statistical differences between the experimental and control groups were analyzed by one-way analysis of variance (ANOVA). […]
Referring to FIG. 28D, time course analyses of the effects of 50 μM LSD1 inhibitor CBB1007 on histone modifications in F9 cells are shown, but with a shorter time course than above. The mean density of each band was quantified by the use of Gel-Pro Analyzer (version 4.0) software, and error bars represent SEMs for duplicate samples. […] The statistical differences were analyzed by one-way ANOVA. *, P_0.05; **, P_0.01. […]

[2] = biological target: T2, recombinant HDAC1 (GST-HDAC1) (Homo sapiens, UniProt Q13547); assay: In vitro deacetylation assay, recombinant HDAC1, H4K16ac peptide; format: biochemical; details: 50 μM CBB1007 or 2 μM MS-275
T2 construct: Human LSD1 and HDAC1 full-length cDNAs were obtained from Open Biosystems; GST (N, cleaved yes); made in house; host or cells: Escherichia coli BL21
T2 sequence (Q13547 whole entry): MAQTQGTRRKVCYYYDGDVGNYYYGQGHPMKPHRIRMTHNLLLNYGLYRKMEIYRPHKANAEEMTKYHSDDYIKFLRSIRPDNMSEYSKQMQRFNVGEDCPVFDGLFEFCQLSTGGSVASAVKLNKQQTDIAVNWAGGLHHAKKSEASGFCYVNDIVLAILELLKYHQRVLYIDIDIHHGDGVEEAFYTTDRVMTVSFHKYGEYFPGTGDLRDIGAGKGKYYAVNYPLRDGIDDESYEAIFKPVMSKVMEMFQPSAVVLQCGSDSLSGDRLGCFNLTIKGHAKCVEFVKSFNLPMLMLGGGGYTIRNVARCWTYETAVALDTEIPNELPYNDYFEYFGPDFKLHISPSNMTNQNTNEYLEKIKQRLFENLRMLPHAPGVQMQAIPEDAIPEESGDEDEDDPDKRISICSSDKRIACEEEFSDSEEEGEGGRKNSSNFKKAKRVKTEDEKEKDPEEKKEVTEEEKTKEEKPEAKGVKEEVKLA
Description: Human LSD1 and HDAC1 full-length cDNAs were obtained from Open Biosystems. […] These cDNAs were fully sequenced and cloned into the pGEX-KG or pET28a vector and expressed as the glutathione S-transferase (GST)- or His-tagged fusion proteins in the Escherichia coli BL21 strain and affinity purified with glutathione or Ni-Sepharose (GE Healthcare, United Kingdom) resin. […] The GST tag and uncut GST-HDAC1/GST-LSD1 proteins were depleted by glutathione-Sepharose. For the reconstitution reaction, recombinant GST-CoREST, His-LSD1, and recombinant HDAC1 (rHDAC1) (GST was removed by the use of PreScission protease) (10 μg) were assembled into the LSD1-CoREST-HDAC1 complex and then pulled down by GSTSepharose resins. Protein A-Sepharose was used as a negative-control resin.

HDAC1-protein A complex = biological target: T3, HDAC1-protein A complex (Mus musculus, UniProt O09106); assay: In vitro deacetylation assay, immunoaffinity-purified HDAC1-protein A complex from F9 cells; format: biochemical
T3 construct: 1 μg immunoprecipitated endogenous HDAC1-protein A complexes; endogenous in cells; host or cells: F9 mouse teratocarcinoma cells, anti-HDAC1 immunoprecipitate on protein A-Sepharose
Description: (§4) The immunocomplexes were captured by protein A-Sepharose. Isolated LSD1-protein A or HDAC1-protein A complexes were verified by Western blotting with LSD1 and HDAC1 antibodies.

[3] = biological target: T4, recombinant LSD1 (GST-LSD1) (Homo sapiens, UniProt O60341); assay: In vitro demethylation assay, recombinant LSD1, H3K4me2 peptide; format: biochemical; details: H3K4me2 peptide, LSD1 and HDAC1 without CoREST
T4 construct: Human LSD1 and HDAC1 full-length cDNAs were obtained from Open Biosystems; GST (N, cleaved yes); made in house; host or cells: Escherichia coli BL21
Description: H3K4me2 and H4K16ac were purchased from AnaSpec and Shanghai Science Peptide Biological Technology Co., Ltd., respectively. Human LSD1 and HDAC1 full-length cDNAs were obtained from Open Biosystems. Human CoREST cDNA was amplified by reverse transcription-PCR (RT-PCR) using mRNA isolated from HeLa cells. These cDNAs were fully sequenced and cloned into the pGEX-KG or pET28a vector and expressed as the glutathione S-transferase (GST)- or His-tagged fusion proteins in the Escherichia coli BL21 strain and affinity purified with glutathione or Ni-Sepharose (GE Healthcare, United Kingdom) resin. […]
For a typical deacetylation assay, 1 μg rHDAC1 or 1 μg immunoprecipitated endogenous HDAC1-protein A complexes (from two 10-cm dishes) was incubated with 0.4 μg H4K16ac peptide in the presence or absence of 50 μM CBB1007 or 2 μM MS-275 at 30° C. for 1 h. The percentages of deacetylated products were analyzed by mass spectrometry, and the data were analyzed by GraphPad Prism (version 5) software. The reaction products were analyzed by mass spectrometry to separate the peptide substrate (H4K16ac) and the product (H4K16), as previously described (Wang, J., et al. (2011) Cancer Research 71, 7238-7249). […]

LSD1-protein A complex = biological target: T5, LSD1-protein A complex (Mus musculus, UniProt Q6ZQ88); assay: In vitro demethylation assay, immunoaffinity-purified LSD1-protein A complex from F9 cells; format: biochemical
T5 construct: recombinant and endogenous LSD1 complexes isolated from F9 cells; endogenous in cells; host or cells: F9 mouse teratocarcinoma cells, anti-LSD1 immunoprecipitate on protein A-Sepharose
Description: as §4

[4] = biological target: T6, LSD1-CoREST-HDAC1 complex (Homo sapiens, UniProt O60341+Q13547); assay: Reconstituted LSD1-CoREST-HDAC1 complex on oligonucleosomes; format: biochemical; details: 50 μM CBB1007 or 2 μM MS-275
T6 construct: Human LSD1 and HDAC1 full-length cDNAs were obtained from Open Biosystems; GST (N, cleaved yes); made in house; host or cells: Escherichia coli BL21
Protocol: For the reconstitution reaction, recombinant GST-CoREST, His-LSD1, and recombinant HDAC1 (rHDAC1) (GST was removed by the use of PreScission protease) (10 μg) were assembled into the LSD1-CoREST-HDAC1 complex and then pulled down by GSTSepharose resins. Protein A-Sepharose was used as a negative-control resin.
Briefly, cells (1×10^6) were washed twice with ice-cold hypotonic buffer (20 mM potassium-HEPES, pH 7.8, 5 mM potassium acetate, 0.5 mM MgCl2, 0.5 mM DTT), swelled, and disrupted with 25 strokes in a Dounce homogenizer using a tightfitting pestle. Nuclei were pelleted at 4,000 rpm for 5 min and resuspended in buffer A (20 mM HEPES, pH 7.9, 1.5 mM magnesium acetate, 50 mM potassium acetate, 10% glycerol, 0.5 mM DTT, 150 mM NaCl, protease and phosphatase inhibitors). […] The chromatin pellet was resuspended in 0.5 mL buffer B (0.32 M sucrose, 50 mM Tris-HCl, pH 7.5, 4 mM MgCl2, 1 mM CaCl2, 0.1 mM phenylmethylsulfonyl fluoride) and incubated with 30 units of micrococcal nuclease for 10 min at 37° C. The digested samples were centrifuged at 8,000×g for 10 min, and the supernatant, which contained oligonucleosomes, was recovered.
The reaction products (demethylated or deacetylated histones) were analyzed by Western blotting.

acetylated H4K16 = assay: H4K16 acetylation in HeLa cells (Western blotting); format: cell-based, human; details: VPA 1 μM or MS-275 2 μM 24 h, TSA 40 nM 16 h
Protocol: Referring to FIG. 31B, the acetylation of H4K16 is sensitive to pan-HDAC inhibitors in HeLa cells. F9 and HeLa cells were treated with the HDAC inhibitor VPA (1 μM) or MS-275 (2 μM) for 24 h or TSA (40 nM) for 16 h. Methylated and acetylated histones H3 and H4 were blotted by specific antibodies, as indicated, and quantified by the use of Gel-Pro Analyzer (version 4.0) software.

A549 cells = assay: Cell cycle analysis by FACS in A549 cells; format: cell-based, human; details: 50 nM siRNA
Protocol: (§1) The fluorescence-activated cell sorting (FACS) and 3-(4,5-dimethyl-2-thiazolyl)-2,5-diphenyl-2H-tetrazolium bromide (MTT) assays were conducted as described previously (Lan, R., et al. (2012) Lab. Invest. 92, 1503-1514). To synchronize PA-1 and F9 cells at the G1/S phase transition, cells were treated with 2.5 mM thymidine for 12 h, released into fresh medium for 6 h, and blocked again with 2.5 mM thymidine for an additional 12 h. The cell cycle arrest was analyzed by FACS. For differentiation, F9 and PA-1 cells were seeded in 6-well plates at a density of 1×10^4 cells per well and supplemented with 5 μM RA for 3 days. Cells were then recultured in fresh medium without RA for another 2 days, and the cell cycle was analyzed on a BD FACSCalibur cell sorter using the CellQuest program (Becton, Dickinson, Mountain View, Calif.). The percentages of cells in G1, S, and G2/M phases were determined by the use of ModFit LT software.
(§2) Referring to FIG. 9C, Sox2-expressing A549, IGROV1, T47D and Sox2-negative H1437 cells were transfected with 50 nM luciferase (Luc) or LSD1 specific siRNAs for 60 hours and the cell cycle was analyzed by flow-cytometry (FACS).
(§3) Referring to FIG. 17A, Sox2-expressing A549, IGROV1, and T47D and Sox2-negative H1437 cells were transfected with luciferase and Sox2 specific siRNAs for 48 hours. The cell cycles of these cells after Sox2 ablation were analyzed by flow-cytometry.

IGROV1 cells = assay: Cell cycle analysis by FACS in IGROV1 cells; format: cell-based, human; details: 50 nM siRNA
Protocol: as §1, §2, §3

T47D cells = assay: Cell cycle analysis by FACS in T47D cells; format: cell-based, human; details: 50 nM siRNA
Protocol: as §1, §2, §3

H1437 cells = assay: Cell cycle analysis by FACS in H1437 cells; format: cell-based, human; details: 50 nM siRNA
Protocol: as §1, §2, §3

Compound: CN1CCN(CCN[C@@H]2C[C@H]2c2ccc(OCc3ccccc3)cc2)CC1 [Compound 2]
- IC50 (LSD1): 31.4 µM

Compound: N[C@@H]1C[C@H]1c1ccc(OCc2ccccc2)cc1 [Compound 3]
- IC50 (LSD1): 39.4 µM

Compound: Nc1ccccc1NC(=O)c1ccc(CNC(=O)OCc2cccnc2)cc1 [MS-275]
- H4K16 acetylation of oligonucleosomes from treated cells [1]: hyperacetylated on H4K16
- deacetylase activity of recombinant HDAC1 [2]: inhibited
- deacetylase activity of immunoaffinity-purified HDAC1 (HDAC1-protein A) (HDAC1-protein A complex): sensitive
- LSD1 activity in the absence of CoREST [3]: not sensitive
- demethylation activity of immunoaffinity-purified LSD1 (LSD1-protein A) (LSD1-protein A complex): blocked the demethylation activity
- HDAC1 deacetylase activity in the reconstituted complex [4]: blocking the HDAC1 activity
- LSD1 demethylase activity in the reconstituted complex [4]: partially inhibit the LSD1 demethylase activity
- acetylated H4K16 level (acetylated H4K16): induced the accumulation of acetylated H4K16

Compound: CC(/C=C/C(=O)NO)=C\[C@@H](C)C(=O)c1ccc(N(C)C)cc1 [TSA, trichostatin A]
- acetylated H4K16 level (acetylated H4K16): induced the accumulation of acetylated H4K16

Compound: CCCC(CCC)C(=O)O [VPA, valproic acid]
- acetylated H4K16 level (acetylated H4K16): induced the accumulation of acetylated H4K16

Compound: LSD1 siRNA: siRNA, human LSD1: GGAAGAAGAUAGUGAAAAC (SEQ ID NO:1) (listed as RNA, chemistry not given here)
- cell cycle population G0/G1 (A549 cells): 74.81%
- cell cycle population G2/M (A549 cells): 0.65%
- cell cycle population S (A549 cells): 24.55%
- cell cycle population G0/G1 (IGROV1 cells): 78.07%
- cell cycle population G2/M (IGROV1 cells): 8.56%
- cell cycle population S (IGROV1 cells): 13.37%
- cell cycle population G0/G1 (T47D cells): 76.34%
- cell cycle population G2/M (T47D cells): 12.17%
- cell cycle population S (T47D cells): 11.49%
- cell cycle population G0/G1 (H1437 cells): 37.28%
- cell cycle population G2/M (H1437 cells): 37.75%
- cell cycle population S (H1437 cells): 24.97%

Compound: Sox2 siRNA: siRNA, human Sox2: CGCUCAUGAAGAAGGAUAA (SEQ ID NO:2) (listed as RNA, chemistry not given here)
- cell cycle population G0/G1 (A549 cells): 76.40%
- cell cycle population G2/M (A549 cells): 0.19%
- cell cycle population S (A549 cells): 23.41%
- cell cycle population G0/G1 (IGROV1 cells): 74.62%
- cell cycle population G2/M (IGROV1 cells): 12.52%
- cell cycle population S (IGROV1 cells): 12.87%
- cell cycle population G0/G1 (T47D cells): 74.65%
- cell cycle population G2/M (T47D cells): 10.86%
- cell cycle population S (T47D cells): 14.48%
- cell cycle population G0/G1 (H1437 cells): 39.39%
- cell cycle population G2/M (H1437 cells): 35.51%
- cell cycle population S (H1437 cells): 25.10%
